This note sets out measurements from publication PMC6196722 (Xenobiotica; the fate of foreign compounds in biological …, 2017).

Experiment [1] has as its target SULT1B1-WT (6xHis tagged) (Homo sapiens, UniProt O43704, L145V). The experiment in a line: intrinsic fluorescence titration. Format: binding.
For experiment [2], the target named is SULT1B1-WT (6xHis tagged) (Homo sapiens, UniProt O43704). The experiment in a line: intrinsic fluorescence titration. In kind it is binding.
Sequence of SULT1B1-WT (6xHis tagged) (Homo sapiens, UniProt O43704) (O43704 whole entry): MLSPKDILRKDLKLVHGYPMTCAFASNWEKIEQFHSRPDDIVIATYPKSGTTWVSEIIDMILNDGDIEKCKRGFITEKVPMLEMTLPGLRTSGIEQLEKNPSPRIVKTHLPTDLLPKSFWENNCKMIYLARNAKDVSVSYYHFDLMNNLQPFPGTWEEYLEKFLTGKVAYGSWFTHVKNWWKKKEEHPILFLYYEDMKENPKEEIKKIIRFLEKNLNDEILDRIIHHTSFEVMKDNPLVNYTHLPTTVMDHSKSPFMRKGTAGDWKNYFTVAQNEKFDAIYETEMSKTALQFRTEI

Sequence of SULT1B1-WT (6xHis tagged) (Homo sapiens, UniProt O43704, L145V) (O43704 whole entry L145V): as the sequence (O43704 whole entry) above, with L145V counted along it

In general, Kd refers to the constant that tells how readily two partners part at equilibrium. Regarding `Nc1ncnc2c1ncn2[C@@H]1O[C@H](COP(=O)(O)OS(=O)(=O)O)[C@@H](OP(=O)(O)O)[C@H]1O` [PAPS], the figures for the Kd in experiment [1] and in experiment [2] were 980 nM and 872 nM, respectively.
In experiment [1], `Nc1ncnc2c1ncn2[C@@H]1O[C@H](COP(=O)(O)O)[C@@H](OP(=O)(O)O)[C@H]1O` [PAP] had an equilibrium dissociation constant (Kd) of 405 nM.
